Source: patent US12257247B2 (Monte Rosa Therapeutics AG, priority 2023, dated 2025)
Read-outs that look alike come from different tables or passages of the source.

Target: T1, VAV1 (Homo sapiens, UniProt P15498+Q96SW2)
T1 construct: A heterozygous VAV1 C-terminal HiBiT knock-in pool was generated at Monte Rosa Therapeutics from a clonal Jurkat cell; endogenous in cells; host or cells: Jurkat clone stably expressing LgBiT, homozygous GSPT1-G575N; heterozygous VAV1-HiBiT knock-in pool
Assay: VAV1 degradation activity, VAV1-HiBiT knock-in Jurkat luminescence assay (Example A, Table 1)
Assay type: cell-based
Details: VAV1-HiBiT knock-in Jurkat cells; for Dmax: Jurkat
Procedure: Cells were plated at 10,000 cells per well using Multiflo (BioTek) or Multi Drop Combi (Thermo Fisher) in 384-well white solid bottom plates (Corning, 3570BC) in 25 ul volume in RPMI 1640 media (Thermo Fischer, 22400105) containing 10% FBS (Corning, 35-075-CV), 1% Penicillin/Streptomycin (ThermoFisher Scientific, 15140-122), and 1% Endurazine (Nano-Glo Endurazine Live Cell Substrate (Promega, N2571)). Cells were incubated for ˜16 hours at 37° C., 5% CO2. 25 nL of a compound at 10 μM were dosed into the plate using an Echo® 650 liquid handler (Labcyte). Cells were incubated at 37° C., 5% CO2 and signal was read at 6 and 24 hours after compound addition on a Pherastar FSX using “LUM plus” optic module.
Analysis was performed in Scinamic (Scinamic, Cambridge, MA). Luminescence response (R) was calculated by the formula: response=100*(S−N)/(P−N) where S is the signal of the well, N and P the mean negative and positive control values respectively of the same plate. The luminescence response was then fitted in Scinamic using a 3-parameter agonist logistic fit (hillslope=1, EC50>0, top/bottom unconstrained).

[1] = luminescence read at 6 and 24 hours, read-out: VAV1 Dmax %
[2] = luminescence read at 6 and 24 hours, read-out: VAV1 Dmax %, class
[3] = luminescence read at 6 and 24 hours, read-out: VAV1 DC50
[4] = luminescence read at 6 and 24 hours, read-out: VAV1 DC50 (nM), class

Dmax [1] [%] | Dmax [2] [%] | DC50 [3] [nM] | DC50 [4] [nM] | Dmax (luminescence read at 6 and 24 hours after compound addition, read-out: VAV1 Dmax %) [%] | Dmax (luminescence read at 6 and 24 hours after compound addition, read-out: VAV1 Dmax %, class) [%] | DC50 (luminescence read at 6 and 24 hours after compound addition, read-out: VAV1 DC50) [nM] | DC50 (luminescence read at 6 and 24 hours after compound addition, read-out: VAV1 DC50 (nM), class) [nM] | SMILES
56.8 | < 60 | 4220 | > 1000 |  |  |  |  | Cc1c(-c2ccc(Cn3ccccc3=O)cc2)cccc1C1CCC(=O)NC1=O (centres unmarked) [Compound 243, 3-[2-methyl-3-[4-[(2-oxo-1-pyridyl)methyl]phenyl]phenyl]piperidine-2,6-dione]
93.5 | > 90 | 17.4 | ≤ 100 |  |  |  |  | O=C1CCC(c2cccc(-c3ccc(N4CCOCC4=O)cc3)c2Cl)C(=O)N1 (centres unmarked) [Compound 336]
58.1 | < 60 | 1570 | > 1000 |  |  |  |  | O=C1CCC(c2cccc(-c3cnc(Cc4ncco4)c(F)c3)c2Cl)C(=O)N1 (centres unmarked) [Compound 370, 3-(2-chloro-3-(5-fluoro-6-(oxazol-2-ylmethyl)pyridin-3-yl)phenyl)piperidine-2,6-dione]
92.1 | > 90 | 11.6 | ≤ 100 |  |  |  |  | Cc1cccc(=O)n1Cc1ccc(-c2cccc(C3CCC(=O)NC3=O)c2Cl)cc1 (centres unmarked) [Compound 184, 3-(2-chloro-4′-((6-methyl-2-oxopyridin-1(2H)-yl)methyl)-[1,1′-biphenyl]-3-yl)piperidine-2,6-dione]
97.4 | > 90 | 5.3 | ≤ 100 |  |  |  |  | CC1(C)COCC(=O)N1c1ccc(-c2cccc(C3CCC(=O)NC3=O)c2Cl)cc1 (centres unmarked) [Compound 402, 3-(2-chloro-4′-(3,3-dimethyl-5-oxomorpholino)-[1,1′-biphenyl]-3-yl)piperidine-2,6-dione]
90.1 | > 90 | 18.4 | ≤ 100 |  |  |  |  | CC(C)(c1ccc(-c2cccc(C3CCC(=O)NC3=O)c2Cl)cc1)n1ccccc1=O (centres unmarked) [Compound 231, 3-(2-chloro-4′-(2-(2-oxopyridin-1(2H)-yl)propan-2-yl)-[1,1′-biphenyl]-3-yl)piperidine-2,6-dione]
91.8 | > 90 | 15.9 | ≤ 100 |  |  |  |  | O=C1CCC(c2cccc(-c3ccc(N4C(=O)CCC45COC5)cc3)c2Cl)C(=O)N1 (centres unmarked) [Compound 355, 3-(2-chloro-4′-(6-oxo-2-oxa-5-azaspiro[3.4]octan-5-yl)-[1,1′-biphenyl]-3-yl)piperidine-2,6-dione]
90.8 | > 90 | 15 | ≤ 100 |  |  |  |  | O=C1CCC(c2cccc(-c3ccc(N4Cc5nccn5CC4=O)cc3)c2Cl)C(=O)N1 (centres unmarked) [Compound 328]
96 | > 90 | 11.5 | ≤ 100 |  |  |  |  | O=C1CCC(c2cccc(-c3ccc(N4CCN(CC(F)(F)F)CC4=O)cc3)c2Cl)C(=O)N1 (centres unmarked) [Compound 445, 3-(2-chloro-4′-(2-oxo-4-(2,2,2-trifluoroethyl)piperazin-1-yl)-[1,1′-biphenyl]-3-yl)piperidine-2,6-dione]
96.5 | > 90 | 5.92 | ≤ 100 |  |  |  |  | Cc1ccnc(Cc2ccc(-c3cccc(C4CCC(=O)NC4=O)c3Cl)cc2)n1 (centres unmarked) [Compound 437, 3-(2-chloro-4′-((4-methylpyrimidin-2-yl)methyl)-[1,1′-biphenyl]-3-yl)piperidine-2,6-dione]

More lines, now with the values behind:

SMILES | Dmax [1] [%] | Dmax [2] [%] | DC50 [3] [nM] | DC50 [4] [nM] | Dmax (luminescence read at 6 and 24 hours after compound addition, read-out: VAV1 Dmax %) [%] | Dmax (luminescence read at 6 and 24 hours after compound addition, read-out: VAV1 Dmax %, class) [%] | DC50 (luminescence read at 6 and 24 hours after compound addition, read-out: VAV1 DC50) [nM] | DC50 (luminescence read at 6 and 24 hours after compound addition, read-out: VAV1 DC50 (nM), class) [nM]
O=C1CCC(c2cccc(-c3ccc(N4CCC4)cc3)c2Cl)C(=O)N1 (centres unmarked) [Compound 195, 3-(4′-(azetidin-1-yl)-2-chloro-[1,1′-biphenyl]-3-yl)piperidine-2,6-dione] | 79.4 | 60 to 90 | 552 | 100 to 1000 |  |  |  | 
CC1Oc2ccncc2N(Cc2ccc(-c3cccc(C4CCC(=O)NC4=O)c3Cl)cc2)C1=O (centres unmarked) [Compound 254] | 96.2 | > 90 | 11.2 | ≤ 100 |  |  |  | 
CNc1ccc(-c2cccc(C3CCC(=O)NC3=O)c2Cl)cc1C (centres unmarked) [Compound 116] | 96 | > 90 | 22.3 | ≤ 100 |  |  |  | 
O=C1CCC(c2cccc(-c3ccc(N4CC(C(F)(F)F)OCC4=O)cc3)c2Cl)C(=O)N1 (centres unmarked) [Compound 306] | 89.1 | 60 to 90 | 49.2 | ≤ 100 |  |  |  | 
COC1(CN2C(=O)Cc3cc(-c4cccc(C5CCC(=O)NC5=O)c4Cl)ccc32)CC1 (centres unmarked) [Compound 391, 3-(2-chloro-3-(1-((1-methoxycyclopropyl)methyl)-2-oxoindolin-5-yl)phenyl)piperidine-2,6-dione] | 54 | < 60 | 5110 | > 1000 |  |  |  | 
O=C1CCC(c2cccc(-c3ccc(N4CCC5(COC5)C4=O)cc3)c2Cl)C(=O)N1 (centres unmarked) [Compound 358, 3-(2-chloro-4′-(5-oxo-2-oxa-6-azaspiro[3.4]octan-6-yl)-[1,1′-biphenyl]-3-yl)piperidine-2,6-dione] | 44.3 | < 60 | ≥ 10000 | > 1000 |  |  |  | 
O=C1CCC(c2cccc(-c3ccc(CN4CC5(F)CC(C5)C4=O)cc3)c2Cl)C(=O)N1 (centres unmarked) [Compound 269] | 96.9 | > 90 | 6.83 | ≤ 100 |  |  |  | 
O=C1CCC(c2cccc(-c3ccc(Cn4ccccc4=O)cc3)c2)C(=O)N1 (centres unmarked) [Compound 239, 3-(4′-((2-oxopyridin-1(2H)-yl)methyl)-[1,1′-biphenyl]-3-yl)piperidine-2,6-dione] | 63.4 | 60 to 90 | 341 | 100 to 1000 |  |  |  | 
O=C1CCC(c2cccc(-c3ccc(OCCCO)cc3)c2Cl)C(=O)N1 (centres unmarked) [Compound 117] | 72 | 60 to 90 | 353 | 100 to 1000 |  |  |  | 
CC1CCC(=O)N1Cc1ccc(-c2cccc(C3CCC(=O)NC3=O)c2Cl)cc1 (centres unmarked) [Compound 297] | 93.5 | > 90 | 13.4 | ≤ 100 |  |  |  | 
Cn1cncc1Cn1ncc2cc(-c3cccc(C4CCC(=O)NC4=O)c3Cl)ccc21 (centres unmarked) [Compound 508, 3-(2-chloro-3-(1-((1-methyl-1H-imidazol-5-yl)methyl)-1H-indazol-5-yl)phenyl)piperidine-2,6-dione] |  |  |  |  | 92 | > 90 | 63.2 | ≤ 100
CC(C)Nc1ccc(-c2cccc(C3CCC(=O)NC3=O)c2Cl)cc1 (centres unmarked) [Compound 129, 3-(2-chloro-4′-(isopropylamino)-[1,1′-biphenyl]-3-yl)piperidine-2,6-dione] | 68.2 | 60 to 90 | 240 | 100 to 1000 |  |  |  | 
O=C1CCC(c2cccc(-c3ccc(N4CCOC(F)(F)C4=O)cc3)c2Cl)C(=O)N1 (centres unmarked) [Compound 320] | 84.9 | 60 to 90 | 102 | 100 to 1000 |  |  |  | 
Cc1cc(C)n(Cc2ccc(-c3cccc(C4CCC(=O)NC4=O)c3Cl)cc2)n1 (centres unmarked) [Compound 127] | 92.4 | > 90 | 39 | ≤ 100 |  |  |  | 
O=C1CCC(c2cccc(-c3ccc(CN4CCCOC4=O)nc3)c2Cl)C(=O)N1 (centres unmarked) [Compound 431, 3-(2-chloro-3-(6-((2-oxo-1,3-oxazinan-3-yl)methyl)pyridin-3-yl)phenyl)piperidine-2,6-dione] | 23.5 | < 60 | ≥ 10000 | > 1000 |  |  |  | 
O=C1CCC(c2cccc(-c3ccc(N4CCn5ccnc5C4=O)cc3)c2Cl)C(=O)N1 (centres unmarked) [Compound 309] | 89.6 | 60 to 90 | 39.4 | ≤ 100 |  |  |  | 
